In ChEMBL document CHEMBL1131301, “Tyrosine kinase inhibitors. 14. Structure-activity relationships for methylamino-substituted derivatives of 4-[(3-bromophenyl)amino]-6-(methylamino)-pyrido[3,4-d]pyrimidine (PD 158780), a potent and specific inhibitor of the tyrosine kinase activity of receptors for the EGF family of growth factors” (J Med Chem, 1998) one finds solubility, IC50 and S data, which are given here for 29 molecules.

For orientation: IC50 means the point on the concentration scale where inhibition reaches its midpoint.

Data set [1] in a line: Aqueous solubility ([…] degree C). Format: physicochemical. As to conditions: for solubility: water, read-out: S; for S: buffer.
For data set [2], the target named is T1, Epidermal growth factor receptor (Homo sapiens, UniProt P00533). In words: Inhibit of phosphorylation of a tyrosine/glutamic acid copolymer by epidermal growth factor receptor prepared from human A431 carcinoma cell vesicles by immunoaffinity chromatography.
Data set [3] deals with T1, Epidermal growth factor receptor. In words: Inhibition of autophosphorylation of epidermal growth factor receptor in A431 cells in culture.

Values after ≈ are worked out from the molar mass of the structure shown.

T1 sequence (P00533 whole entry): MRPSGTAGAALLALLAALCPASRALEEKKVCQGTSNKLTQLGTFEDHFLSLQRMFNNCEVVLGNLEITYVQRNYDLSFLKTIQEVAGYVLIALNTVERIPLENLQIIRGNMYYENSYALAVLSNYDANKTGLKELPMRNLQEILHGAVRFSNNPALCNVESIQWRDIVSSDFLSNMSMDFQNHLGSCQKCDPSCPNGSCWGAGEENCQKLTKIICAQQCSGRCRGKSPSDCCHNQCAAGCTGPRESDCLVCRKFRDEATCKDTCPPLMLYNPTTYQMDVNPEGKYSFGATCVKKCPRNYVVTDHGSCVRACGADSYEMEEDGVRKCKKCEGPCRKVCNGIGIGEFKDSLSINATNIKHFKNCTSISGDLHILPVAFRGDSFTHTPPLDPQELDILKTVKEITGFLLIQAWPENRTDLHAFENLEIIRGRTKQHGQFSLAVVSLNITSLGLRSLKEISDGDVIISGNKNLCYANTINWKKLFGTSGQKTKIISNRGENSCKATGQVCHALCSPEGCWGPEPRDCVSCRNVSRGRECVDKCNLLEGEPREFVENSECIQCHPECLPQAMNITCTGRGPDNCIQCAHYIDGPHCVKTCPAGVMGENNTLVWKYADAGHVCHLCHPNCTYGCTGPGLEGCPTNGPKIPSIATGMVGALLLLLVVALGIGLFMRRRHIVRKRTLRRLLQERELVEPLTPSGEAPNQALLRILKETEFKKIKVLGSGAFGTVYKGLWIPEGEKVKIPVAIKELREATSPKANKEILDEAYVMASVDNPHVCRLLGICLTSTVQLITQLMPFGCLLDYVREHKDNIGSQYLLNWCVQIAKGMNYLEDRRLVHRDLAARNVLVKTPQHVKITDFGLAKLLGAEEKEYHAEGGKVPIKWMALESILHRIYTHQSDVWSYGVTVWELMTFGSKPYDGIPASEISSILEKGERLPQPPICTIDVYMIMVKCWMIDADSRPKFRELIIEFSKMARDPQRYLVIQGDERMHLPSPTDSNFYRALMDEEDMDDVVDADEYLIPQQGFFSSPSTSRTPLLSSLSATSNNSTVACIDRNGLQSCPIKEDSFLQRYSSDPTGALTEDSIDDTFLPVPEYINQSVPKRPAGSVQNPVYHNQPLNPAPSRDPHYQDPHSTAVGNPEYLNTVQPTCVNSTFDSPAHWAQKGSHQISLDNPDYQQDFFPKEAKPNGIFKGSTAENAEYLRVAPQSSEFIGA

As for `CN(CC(=O)O)c1cc2c(Nc3cccc(Br)c3)ncnc2cn1`, the solubility in data set [1] stood at 44 mM (≈ 17100 µg/mL). In data set [2], this molecule had an IC50 of 0.44 nM.

As to `Brc1cccc(Nc2ncnc3cnc(NCCCN4CCOCC4)cc23)c1`, the IC50 came to 5.9 nM in data set [3] and 1 nM in data set [2]. In data set [1], this molecule showed an S of over 44 mM.

As to `Cc1cccc(Nc2ncnc3cnc(NCCc4c[nH]cn4)cc23)c1`, the S in data set [1] was over 30 mM. In data set [2], this molecule returned an IC50 of 1.3 nM.

Regarding `Cc1nc(Nc2cccc(Br)c2)c2cc(NCCN3CCOCC3)ncc2n1`, in data set [2], it took 117 nM to reach half-maximal inhibition (IC50).

In the case of `Brc1cccc(Nc2ncnc3cnc(NCCc4c[nH]cn4)cc23)c1`, the half-maximal inhibitory concentration (IC50) in data set [3] is 6.3 nM; in data set [2], 0.78 nM. Besides, in data set [1], the solubility is 15 mM (≈ 6150 µg/mL).

The molecule `CNc1cc2c(Nc3cccc(C(F)(F)F)c3)ncnc2cn1` returned an IC50 in data set [2] of 1.1 nM.

`CN(C)CCCNc1cc2c(Nc3cccc(Br)c3)ncnc2cn1`: the results for the IC50 in data set [3] and in data set [2] were 16 nM and 1.2 nM, respectively. Also, the solubility in data set [1] stood at 30 mM (≈ 12000 µg/mL).

On to `CN(CC(O)CO)c1cc2c(Nc3cccc(Br)c3)ncnc2cn1` (stereo not drawn), for which, in data set [1], the solubility turned out to be 0.18 mM (≈ 72.8 µg/mL). Also, the IC50 in data set [2] stood at 0.56 nM.

The molecule `CNc1cc2c(Nc3cccc(Cl)c3)ncnc2cn1` showed an IC50 in data set [2] of 0.19 nM.

With `CN(C)CCN(C)c1cc2c(Nc3cccc(Br)c3)ncnc2cn1`, the solubility in data set [1] came out at 39 mM (≈ 15700 µg/mL).

As for `OCC(O)CNc1cc2c(Nc3cccc(Br)c3)ncnc2cn1` (stereo not drawn), the solubility in data set [1] was found to be 0.21 mM (≈ 82 µg/mL). In data set [2], this molecule gave an IC50 of 0.18 nM.

Regarding `O=C(O)CNc1cc2c(Nc3cccc(Br)c3)ncnc2cn1`, the solubility in data set [1] turned out to be 5 mM (≈ 1870 µg/mL). In addition, it took 0.28 nM to reach half-maximal inhibition in data set [2] (IC50).

On to `Brc1cccc(Nc2ncnc3cnc(NCCc4ccccn4)cc23)c1`, for which the IC50 worked out at 8.1 nM in data set [3] and 1.2 nM in data set [2]. The solubility in data set [1] worked out at 17 mM (≈ 7160 µg/mL).

`Brc1cccc(Nc2ncnc3cnc(NCCCn4ccnc4)cc23)c1`: the IC50 in data set [3] came to 9.1 nM; in data set [2] it was 1.7 nM. Further, in data set [1], the solubility was 23 mM (≈ 9760 µg/mL).

For `OCCN(CCO)CCNc1cc2c(Nc3cccc(Br)c3)ncnc2cn1`, the values for the IC50 in data set [3] and in data set [2] were 71 nM and 0.93 nM, respectively. For the same molecule, in data set [1], the solubility is 36 mM (≈ 16100 µg/mL).

As for `Brc1cccc(Nc2ncnc3cnc(NCc4cccnc4)cc23)c1`, the IC50 stood at 13 nM in data set [3] and 1.5 nM in data set [2]. Moreover, in data set [1], the solubility came out at 12 mM (≈ 4890 µg/mL).

Consider `Cc1cccc(Nc2ncnc3cnc(N)cc23)c1`, for which, in data set [1], the solubility stood at 0.4 mM (≈ 101 µg/mL). Besides, the IC50 in data set [2] was determined as 3.1 nM.

For the molecule `CN(C)CCCCNc1cc2c(Nc3cccc(Br)c3)ncnc2cn1`, the IC50 in data set [3] is 19 nM; in data set [2], 1.8 nM. The solubility in data set [1] is 38 mM (≈ 15800 µg/mL).

In data set [1], `Cc1cccc(Nc2ncnc3cnc(NCCCN4CCOCC4)cc23)c1` registered an S of over 35 mM. In data set [2], this molecule registered an IC50 of 1.8 nM.

On to `OCCNc1cc2c(Nc3cccc(Br)c3)ncnc2cn1`, for which the solubility in data set [1] stood at 0.02 mM (≈ 7.2 µg/mL). The IC50 in data set [2] came to 0.19 nM.

`CN1CCN(NCCCNc2cc3c(Nc4cccc(Br)c4)ncnc3cn2)CC1`: the solubility in data set [1] worked out at 32 mM (≈ 15100 µg/mL).

For `Cc1cccc(Nc2ncnc3cnc(NCCN4CCOCC4)cc23)c1`, in data set [1], the S is over 40 mM.

Take `CN1CCN(c2cc3c(Nc4cccc(Br)c4)ncnc3cn2)CC1`: the 50% inhibitory concentration (IC50) in data set [3] worked out at 102 nM; in data set [2] it was 6.4 nM. The solubility in data set [1] worked out at 2.5 mM (≈ 998 µg/mL).

Turning to `CN(CCO)c1cc2c(Nc3cccc(Br)c3)ncnc2cn1`, in data set [1], the solubility came out at 0.11 mM (≈ 41.2 µg/mL). The same molecule registered an IC50 in data set [2] of 0.22 nM.

`CN(C)c1cc2c(Nc3cccc(Br)c3)ncnc2cn1`: the solubility in data set [1] was determined as 0.06 mM (≈ 20.7 µg/mL).

On to `OCCN(CCO)CCCNc1cc2c(Nc3cccc(Br)c3)ncnc2cn1`, for which the IC50 was 230 nM in data set [3] and 0.35 nM in data set [2]. Moreover, the solubility in data set [1] was 20 mM (≈ 9230 µg/mL).

With `O=C(O)CCNc1cc2c(Nc3cccc(Br)c3)ncnc2cn1`, the IC50 in data set [3] is 449 nM; in data set [2] it was 0.27 nM. Also, the solubility in data set [1] stood at 38 mM (≈ 14800 µg/mL).

For `Cc1cccc(Nc2ncnc3cnc(N(C)C)cc23)c1`, in data set [1], the solubility stood at 0.02 mM (≈ 5.59 µg/mL). This molecule also came in with an IC50 in data set [2] of 2.8 nM.

Regarding `CN(CCO)CCNc1cc2c(Nc3cccc(Br)c3)ncnc2cn1`, the figures for the IC50 in data set [3] and in data set [2] were 27 nM and 1.7 nM, respectively. For the same molecule, the S in data set [1] was over 45 mM.
